Consider 2 molecules from article PMC7447632, “Highly functionalized β-lactams and 2-ketopiperazines as TRPM8 antagonists with antiallodynic activity” (Scientific Reports, 2020).

By GI50 is commonly meant the concentration at which growth is held to half of that of the control. Read a high GI50 as less potent growth inhibition.

Test [1] concerns HT29 (colorectal adenocarcinoma). Briefly: SRB cytotoxicity assay, HT29. The format is cell-based. The settings on record: 72 h, SRB; for TGI HT29: total growth inhibition; for TGI HT29 / CC50: unit inferred; for GI50 / CC50: Homo sapiens, HT-29; for CC50: read-out: LC50 HT29. The method, then: Human tumor cell lines used in this study were purchased from the ATCC. A-549 (CCL-185), lung carcinoma; HT-29 (HTB-38), colorectal adenocarcinoma; MDA-MB-231 (HTB-26), breast adenocarcinoma; PSN1, pancreas adenocarcinoma.
All cell lines were maintained in DMEM (Dulbecco’s Modified Eagle's Medium) culture medium supplemented with 10% FBS (Fetal Bovine Serum), 100 Units/mL penicillin/streptomycin at 37 °C, 5% CO2 and 95% humidity.
Triplicate cultures were incubated for 72 h in the presence or absence of test compounds in dose–response curves (10 concentrations, typically ranging from 10 to 0.0026 µg/mL). A colorimetric assay using sulforhodamine B (SRB) was adapted for quantitative measurement of cell growth and cytotoxicity. A more detailed information on this assay is provides in the supplementary information. GI50 is the compound concentration that produces 50% inhibition on cell growth as compared to control cells.
In vitro bioassays for the detection of antitumor activity
The aim of this assay is to evaluate the in vitro cytostatic (ability to delay or arrest tumor cell growth) or cytotoxic (ability to kill tumor cells) activity of the samples […]
Name Nº ATCC Species Tissue Characteristics
A549 CCL-185 human lung lung carcinoma (NSCLC)
HT29 HTB-38 human colon colorectal adenocarcinoma
MDA-MB-231 HTB-26 human breast breast adenocarcinoma
PSN1 CRM-CRL-3211 human pancreas pancreas adenocarcinoma […]
A colorimetric assay, using Sulforhodamine B (SRB) reaction has been adapted to provide a quantitative measurement of cell growth and viability (following the technique described by Skehan et al. J. Natl. Cancer Inst. 1990, 82, 1107-1112 […]
This form of assay employs 96-well cell culture microplates following the standards of the American National Standards Institute and the Society for Laboratory […]
used in this study were obtained from the American Type Culture Collection (ATCC) and derive from different types of human cancer.
A549, HT29, MDA-MB-231 and PSN1 cells were maintained in Dulbecco’s
Modified Eagle Medium (DMEM) supplemented with 10% Fetal Bovine Serum (FBS), 2mM L-glutamine, 100 U/mL penicillin, and 100 U/mL streptomycin at 37 °C, 5% CO2 and 98% humidity. For the experiments, cells were harvested from subconfluent cultures using trypsinization and resuspended in fresh medium before counting and […]
A549, HT29, MDA-MB-231 and PSN1 cells were seeded in 96 well microtiter plates, at 5000 cells per well in aliquots of 150 µL, and allowed to attach to the plate surface for 18 hours (overnight) in drug free medium. After that, one control (untreated) plate of each cell line was fixed (as described below) and used for time zero reference value. Culture plates were then treated with test compounds (50 µL aliquots of 4X stock […]
solutions in complete culture medium plus 4% DMSO) using ten 2/5 serial dilutions (concentrations ranging from 10 to 0.003 µg/mL) and triplicate cultures (1% final concentration in DMSO). After 72 hours treatment, the antitumor effect was measured by using the SRB methodology: Briefly, cells were washed twice with PBS, fixed for 15 min in 1% glutaraldehyde solution at room temperature, rinsed twice in PBS, and stained in 0.4% SRB solution for 30 min at room temperature. Cells were then rinsed several times with 1% acetic acid solution and air-dried at room temperature. SRB was then extracted in 10 mM trizma base solution and the absorbance measured in an automated spectrophotometric plate reader at 490 nm.
Effects on cell growth and survival were estimated by applying the NCI algorithm (Boyd MR and Paull KD. Drug Dev. Res. 1995, 34, 91-109, DOI:10.1002/ddr.430340203). The values obtained in triplicate cultures were fitted by nonlinear regression to a four-parameters logistic curve by nonlinear regression analysis. . Using the absorbance measurements [time zero, (Tz), control growth, (C), and test growth in the presence of drug at the ten concentration levels (Ti)], the […]

A further test concerns 60 tumor cell screen. Briefly: 60 tumor cell screen at the National Cancer Institute. It is filed as cell-based. Conditions: 10 µM concentration. An excerpt:
A number of recent experimental evidences position TRPM channels as important players in cancer growth and progression. Among these channels, the aberrant expression of the TRPM8 subtype has been described in different human malignant tumors, including those of prostate, pancreas, breast, colon, and skin, among others. More importantly, sometimes the TRPM8 overexpression was associated to poor prognosis of cancer patients. […] Based on these precedents, in this work we first aimed at evaluating the antitumor activity of enantiopure compounds 24a and 29a. Initially, we assessed the growth inhibition percentage by a 10 µM concentration of these compounds on a 60 tumor cell screen at the National Cancer Institute (USA).

Consider `C[C@@H]1C(=O)N(C[C@H](Cc2ccccc2)NC(=O)OCc2ccccc2)[C@]1(Cc1ccccc1)C(=O)OCc1ccccc1` [Compound 24a, 4S-Benzyl-4-benzyloxycarbonyl-3S-methyl-1-[(2′S-benzyloxycarbonylamino-3′-phenyl)prop-1′-yl]-2-oxoazetidine], for which, in test [1], the TGI HT29 was > 17.3 µM, the GI50 came out at 4.16 µM and the CC50 was > 17.3 µM. Further, in the test with 60 tumor cell screen, the “Growth inhibition in 60 tumor cell screen” value is “non-selective, modest cytotoxic effects”.

`C[C@@H]1C(=O)N(C[C@@H](Cc2ccccc2)NC(=O)OCc2ccccc2)[C@]1(Cc1ccccc1)C(=O)OCc1ccccc1` [Compound 29a, 4S-Benzyl-4-benzyloxycarbonyl-3S-methyl-1-[(2′R-benzyloxycarbonylamino-3′-phenyl)prop-1′-yl]-2-oxoazetidine]: in test [1], the TGI HT29 is > 17.3 µM, the GI50 was 7.11 µM and the CC50 is > 17.3 µM. Moreover, the “Growth inhibition in 60 tumor cell screen” value in the test with 60 tumor cell screen is on record as “non-selective, modest cytotoxic effects”.
